From patent US20160045498A1, “METHODS OF TREATING DISEASES CHARACTERIZED BY EXCESSIVE WNT SIGNALLING” (THE WALTER AND ELIZA HALL INSTITUTE OF MEDICAL RESEARCH, priority 2013, published 2016)

Experiments:
[1] = test system: intestinal tumours; assay: Intestinal tumour burden after tamoxifen-induced conditional Apc deletion in Lgr5CreERT2;Apcfl/fl mice; type: in vivo; conditions: tamoxifen-treated Lgr5^CreERT2;Apc^fl/fl mice, prophylactic daily AZD1480 30 mg/kg, 5 weeks
Method: e Quantification of intestinal tumour burden of mice using the Metamorph analysis tool (Barker et al., 2009) after tamoxifen-induced conditional Apc deletion in adult Lgr5^CreERT2;Apc^fl/fl mice that also received daily administration of AZD1480 (30 mg/kg) or vehicle during this time. (*p≦0.04; n=3 mice).
d Intestinal tumour burden 5 weeks after tamoxifen-induced conditional Apc deletion in adult Lgr5^CreERT2;Apc^fl/fl mice that also received daily administration of AZD1480 (Jak2i; 30 mg/kg) or vehicle during this time. Higher magnifications of the boxed areas are provided and arrows point to tubular adenomas whilst arrowheads point to micro-adenomas. Scale bars=1 mm.
10 week old Lgr5CreERT2;Apcfl/fl mice received four i.p injections with tamoxifen (10 mg/ml; 300 ul, 200 ul, 200 ul, 200 ul) over four consecutive days. Three days after the last injection, mice received daily oral gavages with either vehicle (tap water, pH 2.0) or CYT387 (30 mg/kg) for four weeks. Regime was 5 days treatment followed by 2 days off treatment.
(§1) Hematoxilin and Eosin-stained sections were scanned using an Aperio ScanScope XT (Aperio, USA) pathology slide scanner with a 20x PlanApo NA0.6 objective and areas of interest were extracted using Aperio ImageScope software v11.1.2.760. The area of individual tumors was outlined using MetaMorph v7.7.7 and standardized against the entire length of the colon section as described (Barker et al., 2009).

[2] = test system: intestinal tumours; assay: Treatment of ApcMin mice with established intestinal tumours; type: in vivo; conditions: Apc^Min mice treated daily 30 mg/kg from 6 to 12 weeks of age; increased in vehicle cohort
Text: as §1

[3] = test system: SW480^APC cells; assay: p-STAT3 immunofluorescence and SOCS3 RT-qPCR in SW480APC cells; type: cell-based, human
Method: d Immunofluorescence staining for β-CATENIN or tyrosine-705 phosphorylated STAT3 in an isogenic pair of SW480 cells grown in the presence of 1 μM AZD1480 (Jak2i) or vehicle. SW480 cells are APC mutant and lack expression of functional APC protein, while SW480^APC cells have been reconstituted to express wild-type APC. Scale bar=20 μm.
g RT-qPCR expression analysis for the STAT3 target gene SOCS3 in SW480 and SW480^APC CRC cells grown for 10 days under colony forming conditions in soft agar in the presence of the indicated treatment. Expression in the vehicle-treated cultures was arbitrarily set as 1. (*p≦0.04; triplicate cultures in each of two repeats).
(§2) SW480 and SW480^APC cells (Faux et al., 2004) were seeded in 2 ml of RPMI media supplemented with 10% FBS and 1% penicillin/streptomycin in 35 mm culture dishes at a density of 2×10^5 cells per dish. Three days later cultures were exposed to AZD1480 (1 μM) for 15 min. Co-immunofluorescence was then performed with antibodies to rabbit phospho-Stat3 (Tyr705, Santa Cruz #9134s, 1:200 dilution) and mouse β-catenin (Transduction Laboratories, 1:400). Colony formation assays of SW480 cells in soft agar were performed as described (Faux et al., 2004) in the presence of either AZD1480, (1 μM), the Stat3 inhibitor S3I-201 (Biovision, 50 μM) or recombinant human IL11 (Genetics Institute, 10 ng/ml). All experiments were performed in triplicates and repeated at least once. Vehicle was methylcellulose.
Gene expression analysis by RT-qPCR was performed using the SybrGreen method (ABI) as described previously (Phesse et al., 2008). Fold change was calculated using the 2^−ΔΔCT method (Livak et al., 2001). Protein expression was analysed by Western blot by transferring SDS-PAGE separated protein lysates to nitrocellulose membrane and blocked either in 5% non-fat milk powder and probed with antibodies detecting p16 (Santa Cruz; #sc-467), Bmi1 (Millipore #[…]), Actin (Sigma; #A2066) or Gapdh (Santa Cruz; #sc-69778). All antibodies were diluted 1:1000 in BSA or non-fat milk powder and incubations were performed overnight.

[4] = test system: SW480^APC cells; assay: Soft agar colony growth assay, SW480APC; type: cell-based, human; conditions: 10 days, AZD1480 1 μM, S3I-201 50 μM, IL11 10 ng/ml
Method: e Photograph of SW480 and SW480^APC CRC cells grown for 10 days under colony forming conditions in soft agar in the presence of vehicle or 1 μM of Jak2 inhibitor AZD1480 (Jak2i) (Scale bar=200 μm)
f Colony forming capacity of an isogenic pair of SW480 cells scored 10 days after the indicated treatment. (*p≦0.04; triplicate cultures and repeated).
as §2

[5] = test system: RKO cells; assay: RKO tumor xenografts; type: in vivo; conditions: RKO (low Wnt signaling), BALB/c nude mice, daily gavage 30 mg/kg from day 7
Method: c, d Tumour xenograft burden in BALB/c nude mice injected s.c. with DLD1 cells or RKO cells in PBS and receiving daily gavage with AZD1480 (30 mg/kg) or vehicle starting on the 7th day after cell inoculation. (*p≦0.0004; two sided t-test; n=8).

[6] = test system: intestinal epithelium; assay: Homeostatic turnover of the intestinal epithelium and body weight in treated mice; type: in vivo
Method: a qRT-PCR expression analysis for Wnt target genes from RNA extracted from AZD1480 or vehicle-treated BALB/c-nude hosts used for the xenograft experiments (*p<0.04, n≧5 mice). b Immunohistochemical analysis of cell proliferation (BrdU), goblet cells (Periodic Acid/Schiff, PAS) and Paneth cells ([…]) or vehicle Control. Scale bar 50 μm. c Weight of BALB/c-nude mice treated with either vehicle or AZD1480 (30 mg/kg, daily) between days 5 and 21 of xenograft experiment (n=8).

[7] = mice treated for 3 weeks, 30 mg/kg daily, vs vehicle

Cc1cc(Nc2nc(N[C@@H](C)c3ncc(F)cn3)ncc2Cl)n[nH]1 [AZD1480]
growth and de novo tumour formation [1]: profoundly reduced | total tumour area [2]: remained remarkably constant | tumour number [2]: remained remarkably constant | accumulation of activated (phosphorylated) p-STAT3 ([3]; 1 μM AZD1480): reduced accumulation | SOCS3 expression ([3]; RT-qPCR, AZD1480 1 μM, IL11 10 ng/ml): reduced SOCS3 expression | colony formation in soft agar [4]: did not affect colony formation | xenograft tumor growth [5]: did not result in reduced tumor growth | body weight ([6]; BALB/c-nude mice, 30 mg/kg daily, days 5 to 21 of xenograft experiment): did not affect body weight | intestinal expression of prototypical Wnt target genes ([6]; BALB/c-nude xenograft hosts, qRT-PCR): remained unaffected | proportion of BrDU-positive proliferating intestinal epithelium cells [6, 7]: no differences | proportion of PAS-staining goblet cells [6, 7]: no differences | proportion of lysozyme-positive Paneth cells [6, 7]: no differences
